{
  "source": "patent US10724949B2",
  "about": "“Cuvette for detecting bacteria and determining their susceptibility to antibiotics” (BacterioScan LTD., priority 2005, dated 2020)",
  "system": "E. coli",
  "test": "Light scattering (speckles image difference plots) test of bacterial susceptibility to an antibiotic agent in a filtered urine sample",
  "assay_type": "cell-based",
  "settings": "gentamicin 1% in test cuvette",
  "from_the_text": "Background signal originated by particles suspended in the sample of fluid that are larger than the bacteria are excluded by mechanically filtering according to the method of the present invention. However there are sources and light scatterers other than the bacteria that can contribute a stationary background signal. Such signals are typically originated by stationary particles present within the illuminated space, impurity of the light source, defects in, and or particles contaminating, the optical components. Therefore a difference plot is computed for excluding stationary background according to a preferred embodiment of the present invention. The intensity measured in every pixel of a speckles image is subtracted from the intensity measured in the same pixel of a preceding speckles image to form a difference plot. […]\nFor determining the susceptibility of bacteria to an antibiotic agent, an average value of at least two averaged derivatives computed first for a test cuvette, immediately following the introduction of an antibiotic agent, are compared to an average of the same number of averaged derivatives computed for speckles images received a few minutes later, preferably after more than 5 minutes. The antibiotic agent for which the difference between these averaged derivatives is the larger is determined. […]",
  "data": [
    {"substance": "gentamicin", "values": [
      {"measurement": "concentration of non-stationary scatterers (difference plots of speckles images)", "setting": "urine containing E. coli 10^5 CFU/ml, difference plot 30 minutes later vs immediately following introduction (FIG. 9B, 9C)", "value": "significant reduction"},
      {"measurement": "values of the averaged derivative of the concentration of scatterers in time (normalised by their maximal value)", "setting": "urine containing E. coli, a few minutes after the introduction of the antibiotics (FIG. 9D)", "value": "significant reduction (of a few tens of percents)"}
    ]}
  ]
}
